Data published in ChEMBL document CHEMBL1144580, “Screening of alpha-helical peptide ligands controlling a calcineurin-phosphatase activity” (Bioorg Med Chem Lett, 2007).
Activity calls are given as the source filed them. The rule behind the calls is not given here.

What was measured:
Homo sapiens [1] = species on record: Homo sapiens; assay: Inhibition of calcineurin phosphatase activity in absence of calmodulin at 1 uM
Homo sapiens [2] = species on record: Homo sapiens; assay: Inhibition of calcineurin phosphatase activity in presence of calmodulin at 1 uM

H-LKKLIRLAYKLLKL-OH
Activity (Homo sapiens [1]): inactive
Activity (Homo sapiens [2]): Dose-dependent effect

H-LKKLLKLLKKLLKL-OH
Activity (Homo sapiens [1]): inactive
Activity (Homo sapiens [2]): Dose-dependent effect

CC(C)C[C@H](NC(=O)[C@H](CCCCN)NC(=O)[C@H](CC(C)C)NC(=O)[C@H](CC(C)C)NC(=O)[C@H](CCCCN)NC(=O)[C@H](Cc1ccc(O)cc1)NC(=O)[C@H](Cc1ccccc1)NC(=O)[C@H](CC(C)C)NC(=O)[C@H](CCCNC(=N)N)NC(=O)[C@H](C)NC(=O)[C@H](CC(C)C)NC(=O)[C@H](CCCCN)NC(=O)[C@H](CCCCN)NC(=O)[C@@H](N)CC(C)C)C(=O)O
Activity (Homo sapiens [1]): inactive
Activity (Homo sapiens [2]): Active

H-LKKLIRLFTKLLKL-OH
Activity (Homo sapiens [1]): inactive
Activity (Homo sapiens [2]): Dose-dependent effect
